Like-named read-outs stand apart in the source and are kept apart here.

Data set [1] has as its system PC3 prostate carcinoma cells. The format is cell-based, human. The protocol: (§1) A2780 human ovarian carcinoma and PC3 prostate carcinoma cells were grown in medium culture RPMI 1640 containing 10% fetal bovine serum and 50 μg/ml gentamycin sulfate. Cells were maintained in a 37° C. incubator with saturated humidity and an atmosphere of 95% air and 5% CO2. A2780 tumour cell line expresses high levels of αvβ5 integrin, and PC3 low levels of both integrins.
(§2) In 96-well tissue culture plates, 50 μl/well of a solution of vitronectin (5 μg/ml) were added for 2 h at room temperature. The solutions were removed upsetting the plates. 50 μl/well of a solution 1% BSA were added for 1 h at RT. The plates were washed by addition of 100 μl/well of medium culture RPMI 1640 without fetal calf serum (FCS). The washing was repeated twice. The molecules were added at different concentrations in the range between 0.039 μM and 20 μM. The solutions were prepared by dilution 1:2 in medium culture without FCS. Tumour cells in the flasks were washed in saline solution before to be detached by scraper, by the addition of 5 ml of medium culture without FCS and 1% BSA. Tumour cells were counted after resuspension and added at an appropriate cellular density (40000-50000 cells/well). The plates were incubated for 1 h at 37° C. in humidified incubator with 5% CO2. Then, the solutions were removed upsetting the plates and washed once with 200 μl/well of PBS with Ca^2+ e Mg^2+. Tumour cells were fixed with 100 μl of a solution 4% paraformaldehyde in 0.2 M Sorensen phosphate buffer pH 7.2-7.4 for 10 min at RT The plates were upset and 100 μl of 1% Toluidine Blu solution were added for 10 min at RT The plates were washed twice by immersion in bi-distilled water and then dried at 60° C. in thermostat incubator (Kottermann). 100 μl/well of 1% SDS were added. The plates were kept under stirring for 20 min at RT and were then evaluated by Victor 1420 multilabel counter (Wallac) at 600 nm.
(§3) The IC50 value as parameter to measure the inhibiting effect of the molecules on tumour cell adhesion to vitronectin was evaluated using “ALLFIT” computer program.

Data set [2] has as its system A2780 ovarian carcinoma cells. The data set is classed as cell-based, human. The protocol: as §1, §2, §3
Data set [3] concerns the target αvβ3 receptor (Homo sapiens, UniProt P05106+P06756). The data set can be described thus: Solid-phase binding assay, inhibition of [125I]Echistatin binding to αvβ3 receptor. The protocol:
(§4) The receptor binding assays were performed as described (Orlando R. A., et al., J. Biol. Chem. 1991, 266, 19543). αvβ3 and αvβ5 were diluted to 500 ng/ml and 1 μg/ml, respectively, in coating buffer (20 mM Tris, pH 7.4, 150 mM NaCl, 2 mM CaCl2, 1 mM MgCl2, 1 mM MnCl2) and an aliquot of 100 μL was added to a 96-well microtiter plate and incubated overnight at 4° C. The plate was washed once with blocking/binding buffer (50 mM Tris, pH 7.4, 100 mM NaCl, 2 mM CaCl2, 1 mM MgCl2, 1 mM MnCl2, 1% bovine serum albumin), and then was incubated for additional 2 h at RT The plate was rinsed twice with the same buffer and incubated for 3 h at RT with radiolabeled ligand [^125I]Echistatin (Amersham Pharmacia Biotech) 0.05 nM (0.1 nM for αv β5) in the presence of competing inhibitors. After the incubation, the wells were washed and radioactivity was determined with a gamma-counter (Packard). Non-specific binding of ligand was determined with molar excess (200 nM) of cold echistatin.
(§5) The IC50 values reported in Tables 1 and 2 were calculated as the concentrations of compounds required for 50% inhibition of echistatin binding and were estimated by the Prism GraphPad program. The Ki of the competing ligands were calculated according to the Cheng-Prusoff equation (Cheng Y. C., et al., Biochem. Pharmacol., 1973, 22, 3099). Values are the mean±log standard error of triplicate determinations from two independent experiments.

For data set [4], the system named is A2780 ovarian carcinoma cells. Briefly: Cytotoxicity, sulphorodamine B test (A2780). The data set is classed as cell-based, human. The protocol:
(§6) To evaluate the effect of the compound on survival cells, the sulphorodamine B test was used. To measure the effects of the compounds on cell growth, PC3 human prostate carcinoma and A2780 human ovarian carcinoma cells were used. A2780 and PC3 tumour cells were grown RPMI 1640 containing 10% fetal bovine serum (GIBCO).
(§7) Tumour cells were seeded in 96-well tissue culture plates at approximately 10% confluence and were allowed to attach and recover for at least 24 h. Varying concentrations of the drugs were then added to each well to calculate their IC50 value (the concentration which inhibits the 50% of cell survival). The plates were incubated at 37° C. for 72 h. At the end of the treatment, the plates were washed by removal of the supernatant and addition of PBS 3 times. 200 μl PBS and 50 μl of cold 80% trichloroacetic acid (TCA) were added. The plates were incubated on ice for at least 1 h. TCA was removed and the plates were washed 3 times by immersion in distilled-water and dried on paper and at 40° C. for 5 min. Then 200 μl of 0.4% sulphorodamine B in 1% acetic acid were added. The plates were incubated at RT for further 30 min. Sulphorodamine B was removed, the plates were washed by immersion in 1% acetic acid 3 times, then they were dried on paper and at 40° C. for 5 min. Then 200 μl Tris 10 mM were added, the plates were kept under stirring for 20 min. The cell survival was determined by means of optical density using a Multiskan spectrofluorimeter at 540 nm. The amount of cells killed was calculated as the percentage decrease in sulphorodamine B binding compared with control cultures.
(§8) The IC50 values were calculated with the “ALLFIT” program.

The target of data set [5] is αvβ5 receptors (Homo sapiens, UniProt P06756+P18084). Briefly: Solid-phase binding assay, inhibition of [125I]Echistatin binding to αvβ5 receptors. The protocol:
as §4, §5

Data set [6] has as its system PC3 prostate carcinoma cells. The data set can be described thus: Cytotoxicity, sulphorodamine B test (PC3). The format is cell-based, human. The protocol: as §6, §7, §8
The nature of data set [7]: Stability of the linker-containing conjugate in various assays. Conditions: various assays conducted. The source says: A number of linker-containing peptides as substrates of Cathepsin B have already been described, for example, Phe-Lys, Val-Cit (Dubowchick G. M., et al, Bioconjugate Chem., 2002, 13, 4, 855); Gly-Phe-Leu-Gly (Rejmanova P., et al, Biomaterials, 1985, 6, 1, 45); D-Ala-Phe-Lys (de Groot F. M. H., et al., Mol. Cancer. Ther., 2002, 1, 901). Some of these peptides have been successfully applied when attached to antibodies, which, due to their bulkiness, can shield them from plasma peptidases. However, when we experimented these peptide sequences applied to conjugates containing small ligands, as in the case of oligopeptides, they were immediately cleaved releasing the cytotoxic agent into the circulation, contrary to what described by other authors. […] The above cited paper from Dubowchick deals with cathepsin B-labile dipeptide ligands. The same authors also published four years before another study about the influence of the amino acid at position P2 when Cit amino acid was at P1 position, concluding that the best amino acid in such a position was Val because of hydrophobic interactions within the binding site of cathepsin B (Dubowchick G. M., et al, Bioorg. Med. Chem., 1998, 8, 3341), meanwhile the analogue containing Ala instead of Val contributed to slower noticeably the release of doxorubicin, which was clearly contrary to the objective of the study.

Where [8] appears, read: PC3, 1 h of treatment, read-out: IC50 ± SD, antiadhesive effect to vitronectin.
Setting [9] is: A2780, 1 h of treatment, read-out: IC50 ± SD, antiadhesive effect to vitronectin.
The mark [10] stands for this setting: A2780, 72 h of treatment, read-out: IC50 ± SD, cytotoxicity.
Where [11] appears, read: PC3, 72 h of treatment, read-out: IC50 ± SD, cytotoxicity.
Where [12] appears, read: αvβ3, Cheng-Prusoff equation, read-out: Ki.
Setting [13] is: αvβ3, [125I]Echistatin 0.05 nM, read-out: IC50 ± log SE, inhibition of [125I]Echistatin binding (converted).
[14] abbreviates: αvβ5, Cheng-Prusoff equation, read-out: Ki.
[15] abbreviates: αvβ5, [125I]Echistatin 0.1 nM, read-out: IC50 ± log SE, inhibition of [125I]Echistatin binding (converted).

Sequence of αvβ3 receptor (P06756 31-889 limits assumed): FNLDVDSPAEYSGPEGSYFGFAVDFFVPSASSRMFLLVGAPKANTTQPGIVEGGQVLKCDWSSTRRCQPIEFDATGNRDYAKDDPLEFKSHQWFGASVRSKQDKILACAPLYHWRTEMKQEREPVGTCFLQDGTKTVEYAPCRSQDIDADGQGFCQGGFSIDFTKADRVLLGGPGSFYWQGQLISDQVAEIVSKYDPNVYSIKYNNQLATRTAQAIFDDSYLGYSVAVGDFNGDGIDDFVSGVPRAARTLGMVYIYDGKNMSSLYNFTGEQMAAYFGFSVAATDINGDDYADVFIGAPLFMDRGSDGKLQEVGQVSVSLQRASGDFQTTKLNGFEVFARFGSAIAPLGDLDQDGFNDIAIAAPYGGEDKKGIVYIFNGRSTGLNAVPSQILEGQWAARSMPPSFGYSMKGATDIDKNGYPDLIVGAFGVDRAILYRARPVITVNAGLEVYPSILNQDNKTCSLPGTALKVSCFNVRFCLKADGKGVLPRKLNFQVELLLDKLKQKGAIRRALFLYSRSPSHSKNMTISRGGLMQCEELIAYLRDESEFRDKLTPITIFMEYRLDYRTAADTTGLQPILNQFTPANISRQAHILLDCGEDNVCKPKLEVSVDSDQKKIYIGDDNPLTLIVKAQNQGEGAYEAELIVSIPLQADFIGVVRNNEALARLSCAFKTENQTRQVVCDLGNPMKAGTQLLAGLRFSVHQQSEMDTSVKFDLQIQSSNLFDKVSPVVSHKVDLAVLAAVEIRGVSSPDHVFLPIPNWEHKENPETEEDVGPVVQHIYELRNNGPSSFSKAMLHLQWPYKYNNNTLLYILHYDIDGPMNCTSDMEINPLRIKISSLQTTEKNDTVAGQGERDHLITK
Sequence of αvβ3 receptor (P06756 891-1048 partner limits assumed): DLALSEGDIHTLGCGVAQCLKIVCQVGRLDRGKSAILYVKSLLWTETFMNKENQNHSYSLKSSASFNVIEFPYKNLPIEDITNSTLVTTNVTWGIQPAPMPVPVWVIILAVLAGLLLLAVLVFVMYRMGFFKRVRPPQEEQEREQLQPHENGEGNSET
Sequence of αvβ3 receptor (P05106 27-788): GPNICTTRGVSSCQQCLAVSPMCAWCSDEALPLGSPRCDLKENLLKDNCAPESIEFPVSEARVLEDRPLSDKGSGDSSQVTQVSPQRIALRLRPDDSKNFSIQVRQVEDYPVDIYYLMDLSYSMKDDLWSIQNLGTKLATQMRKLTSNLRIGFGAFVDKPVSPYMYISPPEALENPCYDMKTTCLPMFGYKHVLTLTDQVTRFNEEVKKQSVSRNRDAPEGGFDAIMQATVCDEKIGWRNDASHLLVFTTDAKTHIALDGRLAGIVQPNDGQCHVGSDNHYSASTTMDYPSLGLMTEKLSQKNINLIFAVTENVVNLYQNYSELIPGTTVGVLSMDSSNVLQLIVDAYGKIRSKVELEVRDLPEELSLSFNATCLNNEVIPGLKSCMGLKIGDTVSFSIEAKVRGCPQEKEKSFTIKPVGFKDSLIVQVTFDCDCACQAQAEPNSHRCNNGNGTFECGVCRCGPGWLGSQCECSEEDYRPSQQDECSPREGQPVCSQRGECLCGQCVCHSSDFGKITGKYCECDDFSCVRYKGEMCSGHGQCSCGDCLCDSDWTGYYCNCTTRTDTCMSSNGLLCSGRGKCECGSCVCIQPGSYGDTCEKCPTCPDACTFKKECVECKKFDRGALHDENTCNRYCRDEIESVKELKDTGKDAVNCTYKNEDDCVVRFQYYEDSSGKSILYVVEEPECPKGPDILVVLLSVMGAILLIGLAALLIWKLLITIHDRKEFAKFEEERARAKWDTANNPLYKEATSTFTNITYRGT
Sequence of αvβ5 receptors (P06756 31-889 limits assumed): as the sequence (P06756 31-889 limits assumed) above
Sequence of αvβ5 receptors (P06756 891-1048 partner limits assumed): as the sequence (P06756 891-1048 partner limits assumed) above
Sequence of αvβ5 receptors (P18084 24-799): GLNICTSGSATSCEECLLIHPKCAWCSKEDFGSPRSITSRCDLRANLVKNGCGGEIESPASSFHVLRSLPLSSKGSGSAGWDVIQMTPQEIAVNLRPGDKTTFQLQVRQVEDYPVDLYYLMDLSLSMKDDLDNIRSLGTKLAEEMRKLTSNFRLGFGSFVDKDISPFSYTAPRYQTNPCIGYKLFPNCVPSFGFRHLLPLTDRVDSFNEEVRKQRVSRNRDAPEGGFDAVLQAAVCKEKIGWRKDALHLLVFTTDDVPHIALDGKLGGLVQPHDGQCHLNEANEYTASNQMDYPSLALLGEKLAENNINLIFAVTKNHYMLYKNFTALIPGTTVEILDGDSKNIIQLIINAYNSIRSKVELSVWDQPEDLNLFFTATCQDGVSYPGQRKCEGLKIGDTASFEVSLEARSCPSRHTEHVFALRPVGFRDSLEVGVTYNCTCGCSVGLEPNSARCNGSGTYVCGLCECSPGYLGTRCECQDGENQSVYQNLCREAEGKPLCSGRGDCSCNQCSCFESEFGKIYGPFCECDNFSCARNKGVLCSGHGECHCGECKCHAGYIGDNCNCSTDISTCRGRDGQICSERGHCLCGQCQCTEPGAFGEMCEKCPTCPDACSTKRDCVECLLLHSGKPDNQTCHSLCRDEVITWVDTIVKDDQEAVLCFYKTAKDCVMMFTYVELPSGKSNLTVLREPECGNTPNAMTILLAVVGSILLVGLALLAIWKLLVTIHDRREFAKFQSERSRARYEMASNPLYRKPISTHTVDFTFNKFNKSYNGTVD

Take `CC[C@@]1(O)C(=O)OCc2c1cc1n(c2=O)Cc2c-1nc1ccccc1c2C=NOCCNC(=O)OCc1ccc(NC(=O)[C@H](CCCCN)NC(=O)[C@H](Cc2ccccc2)NC(=O)COCCOCCOCC(=O)NCc2ccc(C[C@@H]3NC(=O)[C@@H](Cc4ccccc4)NC(=O)[C@H](CC(=O)O)NC(=O)CNC(=O)[C@H](CCCNC(=N)N)NC3=O)cc2)cc1` [ST3280]: the IC50 in data set [1] (setting [8]) was 1800 ± 400 nM; in data set [2] (setting [9]), 2700 ± 300 nM; in data set [3], 9.7 ± 0.06 nM; in data set [4] (setting [10]), 8.4 ± 0.6 nM; in data set [5], 34.4 ± 0.8 nM; in data set [6] (setting [11]) it was 200 ± 30 nM. Besides, the Ki in data set [3] turned out to be 8.5 nM; in data set [5] it was 23 nM. The stability entry in data set [7] was “highly unstable”.
In the case of `CC[C@@]1(O)C(=O)OCc2c1cc1n(c2=O)Cc2c-1nc1ccccc1c2C=NOCCNC(=O)OCc1ccc(NC(=O)[C@H](CCCNC(N)=O)NC(=O)[C@H](C)NC(=O)c2cn(CCOCCOCCOCCC(=O)NCc3ccc(C[C@@H]4NC(=O)[C@@H](Cc5ccccc5)NC(=O)[C@H](CC(=O)O)NC(=O)CNC(=O)[C@H](CCCNC(=N)N)NC4=O)cc3)nn2)cc1` [ST4167], the IC50 worked out at 560 ± 70 nM in data set [1] (setting [8]); 670 ± 20 nM in data set [2] (setting [9]); 11 ± 0.8 nM in data set [3]; 30 ± 3 nM in data set [4] (setting [10]); 18.4 ± 0.89 nM in data set [5]; 1000 ± 100 nM in data set [6] (setting [11]). Further, the Ki in data set [3] stood at 8.7 nM; in data set [5], 13.8 nM.
Turning to `CC[C@@]1(O)C(=O)OCc2c1cc1n(c2=O)Cc2c-1nc1ccccc1c2C=NOCCNC(=O)OCc1ccc(NC(=O)[C@H](CCCNC(N)=O)NC(=O)[C@H](C)NC(=O)c2cn(CCOCCOCCOCCC(=O)N[C@@H](CCCNC(N)=O)C(=O)NCCOCCOCCOCCC(=O)NCc3ccc(C[C@@H]4NC(=O)[C@@H](Cc5ccccc5)NC(=O)[C@H](CC(=O)O)NC(=O)CNC(=O)[C@H](CCCNC(=N)N)NC4=O)cc3)nn2)cc1` [ST4215], the IC50 in data set [1] (setting [8]) came to 4600 ± 800 nM; in data set [2] (setting [9]), 1700 ± 200 nM; in data set [4] (setting [10]), 9 ± 0.7 nM; in data set [6] (setting [11]), 2500 ± 700 nM.
On to `CC[C@@]1(O)C(=O)OCc2c1cc1n(c2=O)Cc2c-1nc1ccccc1c2C=NOCCNC(=O)OCc1ccc(NC(=O)[C@H](CCCNC(N)=O)NC(=O)[C@H](C)NC(=O)COCCOCCOCC(=O)NCc2cn(CC(=O)N[C@@H](CCC(=O)NCCOCCOCCOCCC(=O)NCc3ccc(C[C@@H]4NC(=O)[C@@H](Cc5ccc(O)cc5)NC(=O)[C@H](CC(=O)O)NC(=O)CNC(=O)[C@H](CCCNC(=N)N)NC4=O)cc3)C(=O)NCCOCCOCCOCCC(=O)NCc3ccc(C[C@@H]4NC(=O)[C@@H](Cc5ccc(O)cc5)NC(=O)[C@H](CC(=O)O)NC(=O)CNC(=O)[C@H](CCCNC(=N)N)NC4=O)cc3)nn2)cc1` [ST5744TF1], for which the IC50 in data set [1] (1 h) is 390 ± 90 nM; in data set [2] (1 h), 450 ± 20 nM; in data set [3] (setting [13]), 3.01 ± 0.11 nM; in data set [4] (human) it was 8 ± 0.5 nM; in data set [5] (setting [15]) it was 3.84 ± 0.12 nM; in data set [6] (human), 1000 ± 20 nM. Also, the Ki in data set [3] (setting [12]) turned out to be 2.4 nM; in data set [5] (setting [14]) it was 2.95 nM.
Echistatin [reference compound]: the inhibitory constant (Ki) in data set [3] (setting [12]) was determined as 0.26 nM; in data set [5] (setting [14]) it was 0.33 nM. Also, the IC50 in data set [3] (setting [13]) is 0.28 ± 0.08 nM; in data set [5] (setting [15]), 0.29 ± 0.02 nM.

Values taken from patent US20110160147A1, “NOVEL DUAL TARGETING A[…]” (priority 2008, published 2011).
